Laboratory results reported in patent US20250221410A1, “SUBSTITUTED 2-C-AZINES AND SALTS THEREOF, AND USE THEREOF AS HERBICIDAL ACTIVE SUBSTANCES” (BAYER AKTIENGESELLSCHAFT, priority 2022, published 2025).

Legend:
Format in all cases: in vivo
VERPE: Veronica persica [1] = experiment: Post-emergence herbicidal efficacy at 1280 g/ha, VERPE; settings: visual rating about 3 weeks after treatment vs untreated controls
Procedure: (§1) Seeds of mono- and dicotyledonous weed plants were placed in plastic pots in sandy loam soil (doubly sown with in each case one species of mono- or dicotyledonous weed plants per pot), covered with soil and cultivated in a greenhouse under controlled growth conditions. 2 to 3 weeks after sowing, the test plants were treated at the one-leaf stage. The compounds of the invention, formulated in the form of wettable powders (WP) or as emulsion concentrates (EC), were applied to the green parts of the plants as aqueous suspension or emulsion with addition of 0.5% additive at a water application rate equivalent to 600 litres per hectare. After the test plants had been kept in the greenhouse under optimum growth conditions for about 3 weeks, the activity of the preparations was rated visually in comparison to untreated controls. For example, 100% activity=the plants have died, 0% activity=like control plants. Tables A1 to A12 below show the effects of selected compounds of the general formula (I) according to Table 1 on various harmful plants and at an application rate corresponding to 1280 g/ha, which were obtained by the trial procedure specified above.

[2] = system: AMARE: Amaranthus retroflexus; experiment: Pre-emergence herbicide efficacy at 1280 g/ha, AMARE; settings: visual scoring after about 3 weeks vs untreated controls
Description: (§2) Seeds of mono- and dicotyledonous weed plants were placed in plastic pots in sandy loam soil (doubly sown with one species each of mono- or dicotyledonous weed plants per pot) and covered with soil. The compounds of the invention, formulated in the form of wettable powders (WP) or as emulsion concentrates (EC), were then applied to the surface of the covering soil as aqueous suspension or emulsion with addition of 0.5% additive at a water application rate of 600 litres per hectare (converted). After the treatment, the pots were placed in a greenhouse and kept under good growth conditions for the test plants. After about 3 weeks, the efficacy of the preparations was scored visually in comparison with untreated controls as percentages. For example, 100% activity=the plants have died, 0% activity=like control plants. Tables C1 to C12 below show the effects of selected compounds of the general formula (I) according to Table 1 on various harmful plants and at an application rate corresponding to 1280 g/ha, which were obtained by the trial procedure specified above.

STEME: Stellaria media [3] = experiment: Post-emergence herbicidal efficacy at 1280 g/ha, STEME; settings: visual rating about 3 weeks after treatment vs untreated controls
Procedure: as §1

[4] = system: AMARE: Amaranthus retroflexus; experiment: Post-emergence herbicidal efficacy at 1280 g/ha, AMARE; settings: rated visually after about 3 weeks vs untreated controls, 100% = plants have died, 0% = like control plants
Procedure: as §1

KCHSC: Kochia scoparia = experiment: Post-emergence herbicidal efficacy at 1280 g/ha, KCHSC; settings: visual rating about 3 weeks after treatment vs untreated controls
Procedure: as §1

[5] = system: ABUTH: Abutilon theophrasti; experiment: Pre-emergence herbicide efficacy at 1280 g/ha, ABUTH; settings: visual scoring after about 3 weeks vs untreated controls
Description: as §2

POAAN: Poa annua [6] = experiment: Post-emergence herbicidal efficacy at 1280 g/ha, POAAN; settings: visual rating about 3 weeks after treatment vs untreated controls
Procedure: as §1

POAAN: Poa annua [7] = experiment: Pre-emergence herbicide efficacy at 1280 g/ha, POAAN; settings: visual scoring after about 3 weeks vs untreated controls
Description: as §2

[8] = system: ABUTH: Abutilon theophrasti; experiment: Post-emergence herbicidal efficacy at 1280 g/ha, ABUTH; settings: rated visually after about 3 weeks vs untreated controls, 100% = plants have died, 0% = like control plants
Procedure: as §1

[9] = system: ECHCG: Echinochloa crus-galli; experiment: Pre-emergence herbicide efficacy at 1280 g/ha, ECHCG; settings: visual scoring after about 3 weeks vs untreated controls
Description: as §2

SETVI: Setaria viridis = experiment: Pre-emergence herbicide efficacy at 1280 g/ha, SETVI; settings: visual scoring vs untreated controls
Description: as §2

[10] = system: DIGSA: Digitaria sanguinalis; experiment: Pre-emergence herbicide efficacy at 1280 g/ha, DIGSA; settings: visual scoring after about 3 weeks vs untreated controls
Description: as §2

STEME: Stellaria media [11] = experiment: Pre-emergence herbicide efficacy at 1280 g/ha, STEME; settings: visual scoring vs untreated controls
Description: as §2

VERPE: Veronica persica [12] = experiment: Pre-emergence herbicide efficacy at 1280 g/ha, VERPE; settings: visual scoring vs untreated controls
Description: as §2

SMILES | Post-emergence efficacy against VERPE (VERPE: Veronica persica [1]) [%] | Pre-emergence efficacy against AMARE [2] [%] | Post-emergence efficacy against STEME (STEME: Stellaria media [3]) [%] | Post-emergence efficacy at 1280 g/ha against AMARE in % [4] [%] | Post-emergence efficacy against KCHSC (KCHSC: Kochia scoparia) [%] | Pre-emergence efficacy against ABUTH [5] [%] | Post-emergence efficacy against POAAN (POAAN: Poa annua [6]) [%] | Pre-emergence efficacy against POAAN (POAAN: Poa annua [7]) [%] | Post-emergence efficacy at 1280 g/ha against ABUTH in % [8] [%] | Pre-emergence efficacy against ECHCG [9] [%] | Pre-emergence efficacy against SETVI in % (SETVI: Setaria viridis) [%] | Pre-emergence efficacy against DIGSA [10] [%] | Pre-emergence efficacy against STEME in % (STEME: Stellaria media [11]) [%] | Pre-emergence efficacy against VERPE in % (VERPE: Veronica persica [12]) [%]
Cc1cccc(C(C#N)c2ncc(Cl)cn2)c1Oc1ccc(F)cc1 (racemic) [Example 1-30] | 90 | – | – | – | – | – | – | – | – | – | – | – | – | –
COc1cccc(C(C#N)c2ncc(Cl)cn2)c1Oc1ccc(F)cc1 (racemic) [Example 1-32] | 90 | 90 | 90 | 90 | – | – | – | – | – | – | – | – | – | –
N#CC(c1ncc(Cl)cn1)c1cccc(Br)c1Oc1ccc(F)cc1 (racemic) [Example 1-36] | 90 | – | – | – | – | – | – | – | – | – | – | – | – | –
N#CC(c1ncc(Cl)cn1)c1cccc(C(F)(F)F)c1Oc1ccc(F)cc1 (racemic) [Example 1-39] | 100 | – | – | – | 90 | 100 | – | – | – | – | – | – | – | –
N#CC(c1ncc(Cl)cn1)c1ccccc1-n1cc(C(F)(F)F)cn1 (racemic) [Example 1-41] | 90 | – | – | 90 | – | – | 90 | 90 | 90 | – | – | – | – | –
Fc1cnc(Cc2ccccc2CCCC(F)(F)F)nc1 [Example 1-3] | 90 | – | 90 | 90 | 90 | – | 100 | – | 90 | – | – | – | – | –
FC(F)(F)CCCOc1ccccc1Cc1ncc(Cl)cn1 [Example 1-8] | 100 | 100 | 90 | – | – | – | – | – | – | 90 | 90 | 100 | 90 | –
COc1cccc(Cc2ncc(Cl)cn2)c1Oc1ccc(F)cc1 [Example 1-33] | 90 | 100 | 90 | – | – | – | 90 | 100 | – | – | 100 | – | 90 | 100
N#CC(c1ncc(Cl)cn1)c1cccc(F)c1Oc1ccc(F)cc1 (centres unmarked) [Example 1-34, (5-Chloropyrimidin-2-yl)[3-fluoro-2-(4-fluorophenoxy)phenyl]acetonitrile] | 100 | 90 | 90 | 90 | – | – | – | – | – | – | – | – | 90 | –
Fc1cccc(OCCCC(F)(F)F)c1Cc1ncc(Cl)cn1 [Example 1-60] | 100 | – | – | – | – | – | – | 90 | – | – | – | – | – | 90
N#CC(c1ncc(Cl)cn1)c1ccccc1CCCC(F)(F)F (centres unmarked) [Example 1-68] | – | – | – | 100 | – | – | – | – | – | – | – | – | – | –
N#CC(c1ncc(Cl)cn1)c1ccccc1Cc1ccc(F)cc1 (centres unmarked) [Example 1-69] | 100 | – | 90 | 90 | 90 | 100 | – | – | – | – | – | – | – | –
N#Cc1cccc(C(C#N)c2ncc(Cl)cn2)c1-n1cc(C(F)(F)F)cn1 (centres unmarked) [Example 1-71] | 90 | 100 | 90 | 100 | 100 | – | – | – | – | – | – | – | 90 | –
N#CC(c1ncc(F)cn1)c1ccccc1CCCC(F)(F)F (centres unmarked) [Example 1-72] | – | – | – | – | – | – | – | 90 | – | – | – | – | – | –
N#CC(c1ccc(Cl)cn1)c1ccccc1CCCC(F)(F)F (centres unmarked) [Example 1-73] | 90 | 90 | – | 90 | – | – | – | – | – | – | – | – | – | –
Fc1cc(Cl)cnc1Oc1ccccc1Cc1ncccn1 [Example 1-77] | 90 | 100 | 90 | 90 | – | 90 | 90 | 90 | – | – | – | 90 | 90 | –
N#CC(c1ncc(Cl)cn1)c1ccccc1-c1ccc(F)c(F)c1 (centres unmarked) [Example 1-78] | – | – | – | 90 | – | – | – | 90 | – | – | – | – | – | –
N#CC(c1ncc(F)cn1)c1ccccc1-c1ccc(F)c(F)c1 (centres unmarked) [Example 1-79] | – | – | – | – | – | – | – | 90 | – | – | – | – | – | –
N#CC(c1ccc(Cl)cn1)c1ccccc1-c1ccc(F)c(F)c1 (centres unmarked) [Example 1-80] | 90 | 100 | 90 | 100 | – | 90 | – | 90 | – | – | – | – | 100 | –
N#CC(c1ccc(Cl)cn1)c1ccccc1Cc1ccc(F)cc1 (centres unmarked) [Example 1-82] | 90 | 100 | – | 100 | 90 | 100 | – | 90 | – | – | – | – | 100 | –
FC(F)(F)CCCc1ccccc1Cc1ccc(Cl)cn1 [Example 1-94] | 100 | – | – | 90 | – | – | 90 | – | – | – | – | – | – | –
Fc1ccc(-c2ccccc2Cc2ccc(Cl)cn2)cc1F [Example 1-97] | 100 | 100 | 90 | 100 | 100 | – | 100 | – | 100 | – | – | – | – | –
Fc1ccc(Sc2ccccc2Cc2ccc(Cl)cn2)cc1 [Example 1-105] | 90 | 100 | 90 | 90 | 90 | – | 90 | 100 | 90 | 90 | – | – | 90 | 100
Fc1cnc(Cc2ccccc2SCCC(F)(F)F)nc1 [Example 1-111] | 100 | 100 | 100 | 100 | 100 | – | 100 | – | 90 | – | – | 90 | – | –
Clc1cnc(Cc2ccccc2Sc2ccc(Cl)cc2Cl)nc1 [Example 1-137] | 90 | 100 | 90 | 100 | 90 | – | 90 | 90 | 90 | – | 100 | – | 100 | –
Cc1cc(C)c(-c2cc(C(F)F)no2)c(C(C#N)c2ncc(Cl)cn2)n1 (centres unmarked) [Example 2-6] | – | 90 | – | – | – | 100 | – | – | – | – | – | 90 | 100 | –
